How the values were obtained:
Details in all cases: synthetic library passage 3, intravenous, relative to wild-type AAV9
brain [1] = assay: NGS fold enrichment of synthetic library (passage 3) in C57Bl/6 mice, first cross-species screen; assay type: in vivo
In short: (§1)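 Fold enrichment versus wild-type AAV9 was derived by NGS of RT-PCR-amplified RNA from nervous tissue, collected e.g. 28 days after IV dosing […]. The library (passage 3) was given to two NHPs aged 2-4 years and to 6-8-week BALB/c and C57Bl/6 mice (n=3 each).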

brain [2] = assay: NGS fold enrichment of synthetic library (passage 3) in BALB/c mice, first cross-species screen; assay type: in vivo
In short: as §1

[3] = system: brain, spinal cord, and DRG of the NHPs; assay: NGS fold enrichment of synthetic library (passage 3) in NHPs, first cross-species screen; assay type: in vivo, cynomolgus macaques (Macaca fascicularis)
In short: as §1

[4] = RNA from brain of C57Bl/6 mice, NGS
[5] = RNA from brain of BALB/c mice, NGS
[6] = RNA from spinal cord of NHPs, NGS

Row | Sequence | Fold enrichment over AAV9 in the brain of Mice (C57Bl/6) (brain [1]; [4]) | Fold enrichment over AAV9 in the brain of Mice (BALB/c) (brain [2]; [5]) | Fold enrichment over AAV9 in the brain of NHPs ([3]; RNA from brain of NHPs, NGS) | Fold enrichment over AAV9 in the spinal cord of NHPs [3, 6] | Fold enrichment over AAV9 in the brain of Mice (C57Bl/6) (brain [1]; RNA NGS, brain of C57Bl/6 mice) | Fold enrichment over AAV9 in the brain of Mice (BALB/c) (brain [2]; RNA NGS, brain of BALB/c mice) | Fold enrichment over AAV9 in the brain of NHPs ([3]; RNA NGS, brain of NHPs) | Fold enrichment over AAV9 in the spinal cord of NHPs ([3]; RNA NGS, spinal cord of NHPs)
1 | GSGQNQQTVGGKNL | 0.777 fold | 1.051 fold | 1.203 fold | 0.128 fold |  |  |  | 
2 | GSGQNQQTVGNPAT |  |  |  |  | 0.856 fold | 0.395 fold | 1.008 fold | 3.014 fold
3 | GSGQNQQTVMTARA |  |  |  |  | 0.995 fold | 0.843 fold | 1.117 fold | 1.535 fold
4 | GSGQNQQTVPSNLV | 0.434 fold | 0.281 fold | 1.201 fold | 0.791 fold |  |  |  | 
5 | GSGQNQQTVPTRQT |  |  |  |  | 0.629 fold | 0.138 fold | 1.040 fold | 1.207 fold
6 | GSGQNQQTVQSNLV |  |  |  |  | 0.577 fold | 0.698 fold | 1.103 fold | 2.350 fold
7 | GSGQNQQTVSRQST |  |  |  |  | 1.330 fold | 0.796 fold | 1.820 fold | 0.472 fold
8 | GSGQNQQVAGLNNT | 0.449 fold | 0.492 fold | 1.386 fold | 3.218 fold |  |  |  | 
9 | GSGQNQQVAIRTST |  |  |  |  | 0.963 fold | 0.370 fold | 1.035 fold | 2.447 fold
10 | GSGQNQQVGGKTVT |  |  |  |  | 1.094 fold | 0.821 fold | 1.032 fold | 6.195 fold
11 | GSGQNQQVGSTVRT |  |  |  |  | 0.918 fold | 0.614 fold | 1.124 fold | 2.040 fold
12 | GSGQNQQVHLSTGT |  |  |  |  | 1.011 fold | 0.455 fold | 1.811 fold | 0.266 fold
13 | GSGQNQQVIPNSKT |  |  |  |  | 0.844 fold | 0.376 fold | 1.548 fold | 1.036 fold
14 | GSGQNQQVIQGSNT |  |  |  |  | 0.935 fold | 0.810 fold | 2.521 fold | 8.778 fold
15 | GSGQNQQVLTTART |  |  |  |  | 1.071 fold | 0.948 fold | 1.434 fold | 4.142 fold
16 | GSGQNQQWDSRRQT | 1.059 fold | 0.825 fold | 1.321 fold | 0.531 fold |  |  |  | 
17 | GSGQNQQYAGKILT |  |  |  |  | 1.078 fold | 0.431 fold | 1.112 fold | 0.300 fold

— patent publication US20260250318A1, “COMPOSITIONS AND METHODS FOR CROSSING THE BLOOD BRAIN BARRIER” (VOYAGER THERAPEUTICS, INC., priority 2022, published 2026)
